# Assay results published in patent US20040224880A1, “Regulation of gastric acid secretion by inwardly rectifying k+ channels” (Beth Israel Deaconess Medical Center, Inc., priority 2001, published 2004).
# “Also recorded” adds a separate entry of the source. Read-outs that look alike come from different tables or passages of the source.
# Assays:
# [1] = tested on: bullfrog gastric mucosa; experiment: Acid secretion of frog (bullfrog) gastric mucosa stimulated with histamine/carbachol or forskolin; assay type: cell-based; conditions: for effect of 0.5 and 1 mM barium on acid secretion (in words): up to 3 hr; for Rate of decline in acid secretion: from the linear portion of the inhibition curve, 1 mM cimetidine, 10 mM NH4Cl, 2 mM KCN; for acid secretion with 10 mM imidazole, 3 hr: 10 mM nutrient imidazole (5 mM Iz), pH 7.1, 3 hr
# [2] = tested on: bullfrog gastric mucosa; assay type: cell-based
# Description: FIG. 1B Electrophysiology in the bullfrog gastric mucosa. […] Removal of NH4Cl was followed by a complete recovery of R within 30 min. Data were obtained from 21 experiments and are expressed as the mean±SEM.
# FIG. 1C Electrophysiology in the bullfrog gastric mucosa. […] Removal of NH4Cl was followed by a complete recovery of PD within 30 min. Data were obtained from 21 experiments and are expressed as the mean±SEM.
# [3] = tested on: bullfrog gastric mucosa
# [4] = blocker first (0.5-5 mM barium, 1-10 mM TEA, 10-100 μM tolbutamide, 10 μM clotrimazole, imidazole, 100 μM bumetamide, amiloride, 1 mM oubain, 0.3 mM DIDS), then 10 mM NH4Cl, within 30 min
# [5] = blocker first, then 10 mM NH4Cl, within 30 min
# [6] = 10 mM NH4Cl within 30 min, 0.5, 1, 5 mM barium, TEA, tolbutamide, clotrimazole, vs control tissues
# [7] = 10 mM NH4Cl within 30 min, barium, TEA, tolbutamide, clotrimazole, vs control tissues
# [8] = blocker first (0.5 and 1 mM barium, TEA, tolbutamide, clotrimazole), then 10 mM NH4Cl, within 30 min
# [9] = nutrient solution, vs control tissues, imidazole 100 μM Iz (200 μM nutrient), TEA 1-10 mM, tolbutamide 10-100 μM, clotrimazole 10 μM, bumetamide 100 μM, amiloride, oubain 1 mM, DIDS 0.3 mM, KCN, KCl 2 mM, methylamine
# [10] = Time 90″: after 90 min stimulation with histamine/carbachol, start of incubation with 1 mM cimetidine, 0.3 mM omeprazole, 10 mM NH4Cl or 2 mM KCN
# [11] = Time 120″, 1 mM cimetidine or 0.3 mM omeprazole added at 90 min
# [12] = Time 150″, 1 mM cimetidine or 0.3 mM omeprazole added at 90 min
smiles,measurement,setting,value
[Ba] [barium],acid secretion with 0.5 mM barium,"[1]; 0.5 mM barium, 3 hr (180 min), from 5.23±0.29",4.12±0.38 μEq/hr cm^2
same,acid secretion with 1 mM barium,"[1]; 1 mM barium, 3 hr (180 min), from 5.35±0.22",4.20±0.21 μEq/hr cm^2
same,acid secretion with 5 mM barium,"[1]; 5 mM barium, 3 hr (180 min), from 5.19±0.22",2.89±0.33 μEq/hr cm^2
same,reduction of acid secretion compared to control tissues,"[1]; 5 mM barium, by 3 hr",44%
same,effect of 5 mM barium on acid secretion (in words),"[1]; 5 mM barium, vs control tissues",significantly (P=0.0085) different from control tissues; also recorded: significantly different from that of control tissues
same,effect of 0.5 and 1 mM barium on acid secretion (in words),[1]; vs control tissues,not different from that of control tissues; also recorded: inhibition of acid secretion does not occur
same,effect of 0.5 and 1 mM barium on acid secretion (in words),"[1]; vs control tissues, listed as Barium",not significantly different from that of control tissues
same,acid secretion after 10 mM NH4Cl added to tissues treated with the blocker,[1]; [4],0 μEq/hr cm^2
same,effect of 10 mM NH4Cl on acid secretion of tissues treated with the blocker (in words),[1]; [5],abolished
same,effect on resistance (R) of stimulated tissues (in words),[2]; [6],increased significantly; also recorded: significant increase in R
same,effect on potential difference (PD) of stimulated tissues (in words),[2]; [7],unaffected; also recorded: little to no influence on PD; also recorded: not significantly different from that of control tissues
same,R after 10 mM NH4Cl added to tissues treated with the blocker (in words),[2]; [8],R increased similar to that of control tissues; also recorded: increase in R
same,PD after 10 mM NH4Cl added to tissues treated with the blocker (in words),[2]; [5],PD increased in all groups; also recorded: increase in PD
O=S(=O)(O)c1cc(N=C=S)ccc1C=Cc1ccc(N=C=S)cc1S(=O)(=O)O [DIDS],acid secretion with DIDS,"[1]; 0.3 mM DIDS, 60 min, from 5.25±0.12",2.29±0.18 μEq/hr cm^2
same,acid secretion after 10 mM NH4Cl added to tissues treated with the blocker,[1]; [4],0 μEq/hr cm^2
same,effect of 10 mM NH4Cl on acid secretion of tissues treated with the blocker (in words),[1]; [5],declined; also recorded: immediately reduced acid secretion to zero
same,effect on stimulated acid secretion (in words),[1]; [9],"approximately one half of the initial rate; also recorded: partially, but not completely, inhibited"
"COc1ccc2[nH]c([S+]([O-])Cc3ncc(C)c(OC)c3C)nc2c1 (stereo not drawn) [Omeprazole, omeprazole]",Acid secretion,[1]; [10],5.45 ± 0.30 μEq/h · cm^2
same,Acid secretion,[1]; [11],2.03 ± 0.21 μEq/h · cm^2
same,Acid secretion,[1]; [12],0.30 ± 0.10 μEq/h · cm^2
same,Rate of decline in acid secretion,[1]; 0.3 mM omeprazole,−0.09034 (μEq/h · cm^2)/min
CN [methylamine],acid secretion after methylamine washed from the nutrient solution,[1],3.74±0.41 μEq/hr cm^2
same,"acid secretion after washout, % of the starting level",[1],60%
same,acid secretion with methylamine,[1],0.081±0.056 μEq/hr cm^2
same,effect on stimulated acid secretion (in words),[1],rapidly inhibits acid secretion
same,least (minimum) concentration required for complete inhibition of acid secretion within 30 min,[1],50 mM
same,flux rate of methylamine in inhibited tissues,[3],0.601±0.114 μM/h cm^2
same,flux rate of methylamine in stimulated tissues,[3],2.25±0.088 μM/h cm^2
"CN/C(=N/CCSCc1nc[nH]c1C)NC#N [Cimetidine, cimetidine]",Acid secretion,[1]; [10],5.59 ± 0.13 μEq/h · cm^2
same,Acid secretion,[1]; [11],3.51 ± 0.21 μEq/h · cm^2
same,Acid secretion,[1]; [12],0.83 ± 0.22 μEq/h · cm^2
same,Rate of decline in acid secretion,[1]; 0.3 mM omeprazole,−0.07935 (μEq/h · cm^2)/min
"CC[N+](CC)(CC)CC [TEA, tetraethylammonium]",acid secretion after 10 mM NH4Cl added to tissues treated with the blocker,[1],0 μEq/hr cm^2
same,effect of 10 mM NH4Cl on acid secretion of tissues treated with the blocker (in words),[1],abolished
same,effect on stimulated acid secretion (in words),[1],no effect on stimulated acid secretion; also recorded: no significant decline
same,PD after 10 mM NH4Cl added to tissues treated with the blocker (in words),[2],increase in PD
same,R after 10 mM NH4Cl added to tissues treated with the blocker (in words),[2],R increased in all tissues; also recorded: increase in R
same,effect on potential difference (PD) of stimulated tissues (in words),[2],no effect
same,effect on resistance (R) of stimulated tissues (in words),[2],no effect on R; also recorded: not significantly different from that of control tissues
N=C(N)NC(=O)c1nc(Cl)c(N)nc1N [amiloride],acid secretion after 10 mM NH4Cl added to tissues treated with the blocker,[1]; [4],0.188±0.140 μEq/hr cm^2
same,effect of 10 mM NH4Cl on acid secretion of tissues treated with the blocker (in words),[1]; [5],declined
same,effect on stimulated acid secretion (in words),[1]; [9],unchanged; also recorded: little effect on stimulated acid secretion; also recorded: no significant reduction in acid secretion
C[C@@H]1O[C@@H](O[C@H]2C[C@@H](O)[C@]3(CO)[C@H]4[C@H](O)C[C@]5(C)[C@@H](C6=CC(=O)OC6)CC[C@]5(O)[C@@H]4CC[C@]3(O)C2)[C@H](O)[C@H](O)[C@H]1O [oubain],effect on stimulated acid secretion (in words),[1],unchanged; also recorded: little effect on stimulated acid secretion; also recorded: no significant reduction in acid secretion
same,acid secretion after 10 mM NH4Cl added to tissues treated with the blocker,[1]; [4],0 μEq/hr cm^2
same,effect of 10 mM NH4Cl on acid secretion of tissues treated with the blocker (in words),[1]; [5],declined
"[Cl-].[K+] [KCl, Potassium chloride]",effect on stimulated acid secretion (in words),[1],little effect on acid secretion
Clc1ccccc1C(c1ccccc1)(c1ccccc1)n1ccnc1 [clotrimazole],acid secretion after 10 mM NH4Cl added to tissues treated with the blocker,[1]; [4],0 μEq/hr cm^2
same,effect of 10 mM NH4Cl on acid secretion of tissues treated with the blocker (in words),[1]; [5],abolished
same,effect on stimulated acid secretion (in words),[1]; [9],no effect on stimulated acid secretion; also recorded: no significant decline
same,effect on resistance (R) of stimulated tissues (in words),[2]; [6],no effect; also recorded: not significantly different from that of control tissues
same,effect on potential difference (PD) of stimulated tissues (in words),[2]; [7],no effect
same,R after 10 mM NH4Cl added to tissues treated with the blocker (in words),[2]; [8],increase in R
same,PD after 10 mM NH4Cl added to tissues treated with the blocker (in words),[2]; [5],increase in PD
CCCCNC(=O)NS(=O)(=O)c1ccc(C)cc1 [tolbutamide],acid secretion after 10 mM NH4Cl added to tissues treated with the blocker,[1]; [4],0 μEq/hr cm^2
same,effect of 10 mM NH4Cl on acid secretion of tissues treated with the blocker (in words),[1]; [5],abolished
same,effect on stimulated acid secretion (in words),[1]; [9],no effect on stimulated acid secretion; also recorded: no significant decline
same,effect on resistance (R) of stimulated tissues (in words),[2]; [6],no effect; also recorded: not significantly different from that of control tissues
same,effect on potential difference (PD) of stimulated tissues (in words),[2]; [7],no effect
same,R after 10 mM NH4Cl added to tissues treated with the blocker (in words),[2]; [8],increase in R
same,PD after 10 mM NH4Cl added to tissues treated with the blocker (in words),[2]; [5],increase in PD
"N [ammonia (NH3), ammonia]",concentration of ammonia (NH3) that completely inhibits acid secretion within 30 min,"[1]; NH3 present in 10 mM NH4Cl at pH 7.2, basolateral exposure",92.5 µM
same,NH3 lost from the nutrient solution,[3]; 10 mM,61.46 µM
same,luminal NH3 concentration after 30 min,"[3]; 30 min, 10 mM",0.00133 ± 0.00133 µM
same,nutrient NH3 concentration at 30 min,"[3]; 30 min, 10 mM",538.3±6.7
CCCCNc1cc(C(=O)O)cc(S(N)(=O)=O)c1Oc1ccccc1 [bumetamide],acid secretion after 10 mM NH4Cl added to tissues treated with the blocker,[1]; [4],0.645±0.278 μEq/hr cm^2
same,effect of 10 mM NH4Cl on acid secretion of tissues treated with the blocker (in words),[1]; [5],declined
same,effect on stimulated acid secretion (in words),[1]; [9],unchanged; also recorded: little effect on stimulated acid secretion; also recorded: no significant reduction in acid secretion
c1c[nH]cn1 [imidazole],acid secretion with 100 μM imidazole,"[1]; 100 μM Iz, 3 hr (180 min), from 5.47±0.26",4.86±0.29 μEq/hr cm^2
same,"acid secretion with 10 mM imidazole, 30 min","[1]; 10 mM imidazole (5 mM Iz, 5 mM Iz+), 30 min, from 6.60±0.43",4.60±0.43 μEq/hr cm^2
same,"acid secretion with 10 mM imidazole, 3 hr",[1]; from 6.60±0.43,4.06±0.46 μEq/hr cm^2
same,"acid secretion with 10 mM imidazole, 3 hr","[1]; from 6.60±0.43, listed as Iz",4.03 μEq/hr cm^2
same,acid secretion after 10 mM NH4Cl added to tissues treated with the blocker,[1]; [4],0±0 μEq/hr cm^2
same,effect of 10 mM NH4Cl on acid secretion of tissues treated with the blocker (in words),[1]; [5],inhibited completely; also recorded: inhibited acid secretion immediately
same,effect on stimulated acid secretion (in words),[1]; [9],no effect on acid secretion; also recorded: not significantly different from that of control tissues
same,effect on stimulated acid secretion (in words),"[1]; nutrient solution, vs control tissues, imidazole 100 μM Iz (200 μM nutrient), TEA 1-10 mM, tolbutamide 10-100 μM, clotrimazole 10 μM, bumetamide 100 μM, amiloride, oubain 1 mM, DIDS 0.3 mM, KCN, KCl 2 mM, methylamine, listed as Iz",not significantly different from that of control tissues
